In patent US6630492B1, “Lymphocyte function antigen-1 antagonists” (Novartis AG, priority 1997, dated 2003):
Read-outs that look alike come from different tables or passages of the source.

Experiments:
[1] = target: T1, LFA-1/ICAM-1 interactions (Homo sapiens, UniProt P20701); assay: Jurkat or Hut 78 cell adhesion to ICAM-1; format: cell-based
T1 construct: host or cells: Jurkat or Hut 78 cells
Method: Jurkat or Hut 78 cells obtained from ATCC and cultured in RPMI-1640 supplemented with 10% FCS, L-glutamine, non essential amino acids and 0.05 mM 2-mercaptoethanol, are centrifuged, washed once in PBS, and resuspended at 0.5×10^6 cells/ml in binding buffer (1.5% BSA, 5 mM glucose, 2 mM MgCl2, […] MnCl2 in TBS, pH 7) containing 5 μg/ml BCECF-AM (Molecular Probes). The cells are incubated at 37° C. for 30-45 min. in the dark. Then the cells are centrifuged and resuspended in binding buffer by pipetting and immediately used for experiment.
Flat well microtiter plates (NUNC Maxisorp) are coated with 1 μg/ml goat anti-mouse Cκ (Bioreba, South.Biot.) in carbonate buffer (15 mM Na2CO3, 35 mM NaHCO3, pH8.0) 2 hours at 37° C. The plates are emptied and blocked with 1.5% BSA and 0.5% Tween-20 in carbonate buffer for 90 min. at 37° C. The plates are emptied and washed once in TBS containing, 1.5% BSA. Baculovirus derived ICAM-1 mouse Cκ fusion protein (100 ng/ml in TBS/1.5% BSA) is added to the wells. The plates are incubated for 90 min. at 37° C. After three washes with TBS/1.5% BSA, the compound to be tested is diluted in binding buffer (as above but free from BSA and glucose) and added to the wells. Then 100 000 Jurkat or Hut 78 cells/well are added and allowed to adhere for 30 min. at 37° C. Adherent cells are separated from non-adherent cells by 2-4 washes using binding buffer. Adherent cells are quantified with a fluorescence ELISA reader CytofluorII with the filters set at 485 nm and 530 nm emission.

[2] = system: thioglycollate induced neutrophil migration; assay: Murine thioglycollate induced peritonitis; format: in vivo; conditions: s.c., mice
Method: Thioglycollate is injected i.p. to mice and immediately thereafter the compound to be tested is given s.c. The mice are killed after 4 hours, the peritoneal cavity lavaged and the total number of neutrophils in the lavage fluid is determined.
In this assay, the compounds of the invention, e.g. mevinolins inhibit thioglycollate induced neutrophil migration when administered s.c. at a dose of from 0.001-50 mg/kg.

LFA-1 I-domain = target: T2, LFA-1 I-domain (Homo sapiens, UniProt P20701); assay: X-ray analysis of the complex of LFA-1 I-domain with mevinolin; format: binding
T2 construct: amino acid residues 128 to 309 of the α-chain of LFA-1 which corresponds to the I-domain
T2 sequence (P20701 153-334): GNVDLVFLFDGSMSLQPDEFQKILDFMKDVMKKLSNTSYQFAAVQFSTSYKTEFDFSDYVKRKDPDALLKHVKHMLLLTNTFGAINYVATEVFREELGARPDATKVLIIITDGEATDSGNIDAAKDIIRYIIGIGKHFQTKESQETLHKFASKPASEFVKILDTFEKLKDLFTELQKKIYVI
Method: The complex, LFA-1 I-domain/mevinolin, is prepared by adding mevinolin (100 mM solution in DMSO) to the protein solution (12.7 mg/ml, 100 mM MgSO4), followed by crystallization. The structure is solved by molecular replacement (using the coordinates of apo LFA-1 I domain, A. Qu & D. Leahy, above) and has been refined to a R factor of 19.4% (Rfree=25.9%) using X-ray amplitudes in the resolution range 8 Å-2.6 Å. The final model contains 2×182 amino acids (amino acid residues 128 to 309 of the α-chain of LFA-1 which corresponds to the I-domain), 2 mevinolin molecules and a total of 86 water molecules.

[3] = Jurkat cells, adhesion to ICAM-1, read-out: IC50 in the Jurkat Cell Assay

T1 sequence (P20701 26-1170): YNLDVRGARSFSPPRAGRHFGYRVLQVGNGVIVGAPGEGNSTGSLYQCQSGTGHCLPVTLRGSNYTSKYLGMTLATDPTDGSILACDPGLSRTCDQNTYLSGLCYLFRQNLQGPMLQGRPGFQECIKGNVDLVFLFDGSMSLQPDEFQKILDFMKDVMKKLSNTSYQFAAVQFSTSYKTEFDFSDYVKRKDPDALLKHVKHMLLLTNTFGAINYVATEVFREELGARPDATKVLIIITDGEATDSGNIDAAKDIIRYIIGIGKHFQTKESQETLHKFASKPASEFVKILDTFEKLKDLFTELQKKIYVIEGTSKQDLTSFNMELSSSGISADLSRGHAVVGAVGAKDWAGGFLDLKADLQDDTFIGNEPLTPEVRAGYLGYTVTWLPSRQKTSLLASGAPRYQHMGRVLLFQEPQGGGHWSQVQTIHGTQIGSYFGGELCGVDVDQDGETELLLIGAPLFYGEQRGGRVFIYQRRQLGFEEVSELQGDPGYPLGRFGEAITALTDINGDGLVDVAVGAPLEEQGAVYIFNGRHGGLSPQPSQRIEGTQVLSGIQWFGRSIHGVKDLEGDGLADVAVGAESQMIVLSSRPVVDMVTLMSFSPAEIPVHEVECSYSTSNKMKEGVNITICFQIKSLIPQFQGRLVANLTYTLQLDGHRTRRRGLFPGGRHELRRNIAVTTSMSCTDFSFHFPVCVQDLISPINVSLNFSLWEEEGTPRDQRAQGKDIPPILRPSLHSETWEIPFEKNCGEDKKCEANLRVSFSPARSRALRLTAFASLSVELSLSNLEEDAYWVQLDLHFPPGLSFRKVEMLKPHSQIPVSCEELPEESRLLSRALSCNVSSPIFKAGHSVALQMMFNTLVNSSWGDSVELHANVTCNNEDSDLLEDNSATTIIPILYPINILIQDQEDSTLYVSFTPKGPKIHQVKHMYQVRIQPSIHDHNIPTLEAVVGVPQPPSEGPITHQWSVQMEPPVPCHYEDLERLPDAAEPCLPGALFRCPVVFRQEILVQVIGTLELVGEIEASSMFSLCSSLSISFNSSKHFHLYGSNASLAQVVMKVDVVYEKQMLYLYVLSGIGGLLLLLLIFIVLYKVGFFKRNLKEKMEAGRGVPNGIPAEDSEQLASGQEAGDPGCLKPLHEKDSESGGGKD
T1 sequence (P05107 23-769 partner): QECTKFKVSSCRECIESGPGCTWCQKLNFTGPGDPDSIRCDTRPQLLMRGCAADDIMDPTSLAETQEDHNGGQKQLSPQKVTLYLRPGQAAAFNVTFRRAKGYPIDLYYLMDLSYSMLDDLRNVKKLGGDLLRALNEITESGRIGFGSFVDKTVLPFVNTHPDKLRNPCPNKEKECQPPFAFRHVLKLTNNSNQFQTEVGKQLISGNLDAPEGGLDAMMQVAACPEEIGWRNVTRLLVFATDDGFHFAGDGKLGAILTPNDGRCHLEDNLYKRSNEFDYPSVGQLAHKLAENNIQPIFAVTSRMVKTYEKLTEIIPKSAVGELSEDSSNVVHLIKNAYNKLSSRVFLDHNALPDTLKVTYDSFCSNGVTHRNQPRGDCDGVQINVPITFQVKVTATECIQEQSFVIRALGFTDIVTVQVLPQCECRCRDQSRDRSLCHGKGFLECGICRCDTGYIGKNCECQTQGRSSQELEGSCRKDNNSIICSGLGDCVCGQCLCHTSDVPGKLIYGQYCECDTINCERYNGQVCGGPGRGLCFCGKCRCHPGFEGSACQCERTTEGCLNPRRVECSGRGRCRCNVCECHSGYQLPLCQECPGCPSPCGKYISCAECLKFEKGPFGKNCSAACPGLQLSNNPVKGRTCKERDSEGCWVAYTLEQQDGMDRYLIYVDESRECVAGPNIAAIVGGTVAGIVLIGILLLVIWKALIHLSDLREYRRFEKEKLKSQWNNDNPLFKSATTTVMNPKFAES

Q: With `CCC(C)C(=O)OC1CC(C)C=C2C=CC(C)C(CCC(O)CC(CC(=O)NCCO)NCCO)C21` (stereo not shown) [Example 6, 2-Methyl-butyric Acid 8-[3-Hydroxy-5-(2-hydroxy-ethylamino)-6-(2-hydroxy-ethylcarbamoyl)-hexyl]-3,7-dimethyl-1,2,3,7,8,8a-hexahydro-naphthalen-1-yl Ester] as the molecule, how does the IC50 [1, 3] read?
A: 4000 nM

Q: What about the “inhibition of neutrophil migration” value ([2]; 1 mg/kg) of the same molecule?
A: fully inhibit

Q: How did the IC50 [1, 3] turn out when `CC[C@H](C)C(=O)O[C@H]1C[C@@H](C)C=C2C=C[C@H](C)[C@H](CCC(O)CC(O)CC(=O)NCc3ccccc3OC)[C@H]21` (stereo partly shown) [Example 15] was run?
A: 2200 nM

Q: How did the IC50 [1] turn out when `CC[C@H](C)C(=O)O[C@H]1C[C@@H](C)C=C2C=C[C@H](C)[C@H](CCC(O)CC(O)CC(=O)N3CCC4(CC3)OCCO4)[C@H]21` (stereo partly shown) [Example 33] was run?
A: 1200 nM

Q: What about the “inhibition of neutrophil migration” value ([2]; 0.1 mg/kg) of the same molecule?
A: fully inhibit

Q: Which “binding to the MIDAS-site” value (LFA-1 I-domain; X-ray analysis of the complex) does the source give for `CC[C@H](C)C(=O)O[C@H]1C[C@@H](C)C=C2C=C[C@H](C)[C@H](CC[C@@H]3C[C@@H](O)CC(=O)O3)[C@H]21` [mevinolin, Mevinolin] here?
A: does not bind to the MIDAS-site

Q: And the “binding to the LFA-1 I-domain (south pole pocket)” value (LFA-1 I-domain; between the C-terminal helix α7 and one side of the β-sheet)?
A: binds to the LFA-1 I-domain
